Source: BindingDB's records for doi:10.1021/jm00062a011 (Smithkline Beecham Pharmaceuticals, 1993)
Structures can show the parent of a compound that is named as a salt.

Biological target: cGMP-specific 3',5'-cyclic phosphodiesterase PDE5 (Sus scrofa)
Experiment: In vitro inhibition of PDE-V isolated from porcine pulmonary artery.

With `c1ccc(COc2ccccc2-c2nc3ncccc3[nH]2)cc1` [2-(2-Benzyloxy-phenyl)-3H-imidazo[4,5-b]pyridine] as the compound, how does the IC50 read?
The IC50 was 4 µM.

Which IC50 does the source give for `CCCCOc1ccccc1-c1nc2ncccc2[nH]1` [2-(2-Butoxy-phenyl)-3H-imidazo[4,5-b]pyridine] here?
The IC50 was 1 µM.

How did the IC50 turn out when `c1ccc(-c2nc3ncccc3[nH]2)c(OC2CCCC2)c1` [2-(2-Cyclopentyloxy-phenyl)-3H-imidazo[4,5-b]pyridine] was run?
Its IC50 is 15 µM.

`c1ccc(-c2nc3ncccc3[nH]2)c(OCC2CC2)c1` [2-(2-Cyclopropylmethoxy-phenyl)-3H-imidazo[4,5-b]pyridine] was tested. Which IC50 did it give?
Its IC50 is 6 µM.

For `CCOc1ccccc1-c1nc2ncccc2[nH]1` [2-(2-Ethoxy-phenyl)-3H-imidazo[4,5-b]pyridine], which IC50 is on record?
The IC50 was 18 µM.

With `CCCCCCOc1ccccc1-c1nc2ncccc2[nH]1` [2-(2-Hexyloxy-phenyl)-3H-imidazo[4,5-b]pyridine] as the compound, how does the IC50 read?
The IC50 was 4 µM.

Which IC50 does the source give for `COc1ccccc1-c1nc2ccncc2[nH]1` [2-(2-Methoxy-phenyl)-3H-imidazo[4,5-c]pyridine; hydrochloride] here?
The IC50 was 42 µM.

How did the IC50 turn out when `CCCCCOc1ccccc1-c1nc2ncccc2[nH]1` [2-(2-Pentyloxy-phenyl)-3H-imidazo[4,5-b]pyridine] was run?
The IC50 was 1 µM.

For `CCCCCOc1ccccc1-c1nc2ccncc2[nH]1` [2-(2-Pentyloxy-phenyl)-3H-imidazo[4,5-c]pyridine; hydrochloride], which IC50 is on record?
The IC50 was 1 µM.

With `CCCOc1ccccc1-c1cn2cccnc2n1` [2-(2-Propoxy-phenyl)-imidazo[1,2-a]pyrimidine] as the compound, how does the IC50 read?
Its IC50 is 33 µM.

How did the IC50 turn out when `CCCSc1ccccc1-c1nc2ncccc2[nH]1` [2-(2-Propylsulfanyl-phenyl)-3H-imidazo[4,5-b]pyridine] was run?
Its IC50 is 24 µM.

With `Oc1ccccc1-c1nc2ncccc2[nH]1` [2-(3H-Imidazo[4,5-b]pyridin-2-yl)-phenol] as the compound, how does the IC50 read?
The IC50 was 37 µM.

Which IC50 does the source give for `COc1cc([S+](C)[O-])ccc1-c1nc2cnccc2[nH]1` (stereo unspecified) [2-(4-Methanesulfinyl-2-methoxy-phenyl)-1H-imidazo[4,5-c]pyridine(isomazole)] here?
Its IC50 is 58 µM.

With `ClCCCOc1ccccc1-c1nc2ncccc2[nH]1` [2-[2-(3-Chloro-propoxy)-phenyl]-3H-imidazo[4,5-b]pyridine] as the compound, how does the IC50 read?
Its IC50 is 2 µM.

`OCCCOc1ccccc1-c1nc2ncccc2[nH]1` [3-[2-(3H-Imidazo[4,5-b]pyridin-2-yl)-phenoxy]-propan-1-ol] was tested. Which IC50 did it give?
The IC50 was 24 µM.

How did the IC50 turn out when `CCCNc1ccccc1-c1nc2ncccc2[nH]1` [[2-(3H-Imidazo[4,5-b]pyridin-2-yl)-phenyl]-propyl-amine] was run?
Its IC50 is 26 µM.
